Assays:
Test in all cases: biochemical
Design in all cases: KINOMEscan (DiscoverX) competition binding screen of 97 human kinases, percent of control at 10 uM
[1] = target: T1, ABL1(E255K)-phosphorylated (Homo sapiens, UniProt P00519, E255K)
T1 construct: phosphorylated
Procedure: (§1) The KINOMEscan profiling of the inhibitors were performed as per directions by the manufacturer (DiscoverX) against a panel of human protein kinases.

[2] = target: T2, ABL1-nonphosphorylated (Homo sapiens, UniProt P00519)
T2 construct: nonphosphorylated
Procedure: as §1

[3] = target: ACVR1B (Homo sapiens, UniProt P36896)
Procedure: as §1

[4] = target: AURKB (Homo sapiens, UniProt Q96GD4)
AURKB, sequence (Q96GD4 whole entry): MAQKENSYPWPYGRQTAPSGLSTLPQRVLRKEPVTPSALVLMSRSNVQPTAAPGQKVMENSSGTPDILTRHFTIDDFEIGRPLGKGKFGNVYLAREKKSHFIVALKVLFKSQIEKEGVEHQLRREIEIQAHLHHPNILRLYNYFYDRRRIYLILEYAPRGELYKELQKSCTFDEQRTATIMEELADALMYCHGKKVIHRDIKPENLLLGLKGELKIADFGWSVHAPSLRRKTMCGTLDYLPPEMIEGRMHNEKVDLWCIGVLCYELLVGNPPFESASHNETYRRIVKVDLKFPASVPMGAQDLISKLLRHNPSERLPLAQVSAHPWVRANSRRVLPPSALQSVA
Procedure: as §1

[5] = target: T3, CDK11 (Homo sapiens, UniProt Q9BWU1)
T3 construct: gene CDK19
T3 sequence (Q9BWU1 whole entry): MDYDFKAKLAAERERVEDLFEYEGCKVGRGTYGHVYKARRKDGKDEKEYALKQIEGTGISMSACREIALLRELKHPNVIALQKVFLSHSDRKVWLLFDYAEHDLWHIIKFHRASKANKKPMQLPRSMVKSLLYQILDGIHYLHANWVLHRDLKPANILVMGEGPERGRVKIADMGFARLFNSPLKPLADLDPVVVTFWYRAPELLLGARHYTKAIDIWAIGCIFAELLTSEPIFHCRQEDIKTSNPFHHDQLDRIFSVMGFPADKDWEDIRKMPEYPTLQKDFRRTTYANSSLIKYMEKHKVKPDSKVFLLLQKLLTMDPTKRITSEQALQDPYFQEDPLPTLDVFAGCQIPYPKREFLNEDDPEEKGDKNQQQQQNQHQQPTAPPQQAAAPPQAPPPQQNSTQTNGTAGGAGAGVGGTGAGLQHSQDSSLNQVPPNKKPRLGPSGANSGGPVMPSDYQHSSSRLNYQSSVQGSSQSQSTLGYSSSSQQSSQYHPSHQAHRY
Procedure: as §1

[6] = target: CHEK1 (Homo sapiens, UniProt O14757)
Procedure: as §1

[7] = target: CSNK1D (Homo sapiens, UniProt P48730)
Procedure: as §1

[8] = target: CSNK1G2 (Homo sapiens, UniProt P78368)
Procedure: as §1

[9] = target: T4, DCAMKL1 (Homo sapiens, UniProt O15075)
T4 construct: gene DCLK1
Procedure: as §1

[10] = target: ERBB2 (Homo sapiens, UniProt P04626)
Procedure: as §1

[11] = target: ERBB4 (Homo sapiens, UniProt Q15303)
Procedure: as §1

[12] = target: T5, IKK-beta (Homo sapiens, UniProt O14920)
T5 construct: gene IKBKB
Procedure: as §1

[13] = target: T6, JAK2(JH1domain-catalytic) (Homo sapiens, UniProt O60674)
T6 construct: JH1domain-catalytic
Procedure: as §1

[14] = target: T7, JNK3 (Homo sapiens, UniProt P53779)
T7 construct: gene MAPK10
T7 sequence (P53779 whole entry): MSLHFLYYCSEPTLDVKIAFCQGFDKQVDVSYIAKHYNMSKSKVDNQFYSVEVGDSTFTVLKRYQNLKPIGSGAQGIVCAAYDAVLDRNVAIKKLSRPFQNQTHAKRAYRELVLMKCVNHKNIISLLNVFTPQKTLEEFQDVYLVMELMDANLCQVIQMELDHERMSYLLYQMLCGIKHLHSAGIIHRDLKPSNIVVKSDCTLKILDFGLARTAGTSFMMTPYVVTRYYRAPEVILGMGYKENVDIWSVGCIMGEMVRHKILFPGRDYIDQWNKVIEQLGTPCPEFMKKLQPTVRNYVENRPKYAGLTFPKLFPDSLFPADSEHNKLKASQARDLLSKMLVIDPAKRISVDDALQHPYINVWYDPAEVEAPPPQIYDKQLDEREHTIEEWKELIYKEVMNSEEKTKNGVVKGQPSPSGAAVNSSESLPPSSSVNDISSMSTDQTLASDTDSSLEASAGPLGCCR
Procedure: as §1

[15] = target: T8, MLK1 (Homo sapiens, UniProt P80192)
T8 construct: gene MAP3K9
T8 sequence (P80192 whole entry): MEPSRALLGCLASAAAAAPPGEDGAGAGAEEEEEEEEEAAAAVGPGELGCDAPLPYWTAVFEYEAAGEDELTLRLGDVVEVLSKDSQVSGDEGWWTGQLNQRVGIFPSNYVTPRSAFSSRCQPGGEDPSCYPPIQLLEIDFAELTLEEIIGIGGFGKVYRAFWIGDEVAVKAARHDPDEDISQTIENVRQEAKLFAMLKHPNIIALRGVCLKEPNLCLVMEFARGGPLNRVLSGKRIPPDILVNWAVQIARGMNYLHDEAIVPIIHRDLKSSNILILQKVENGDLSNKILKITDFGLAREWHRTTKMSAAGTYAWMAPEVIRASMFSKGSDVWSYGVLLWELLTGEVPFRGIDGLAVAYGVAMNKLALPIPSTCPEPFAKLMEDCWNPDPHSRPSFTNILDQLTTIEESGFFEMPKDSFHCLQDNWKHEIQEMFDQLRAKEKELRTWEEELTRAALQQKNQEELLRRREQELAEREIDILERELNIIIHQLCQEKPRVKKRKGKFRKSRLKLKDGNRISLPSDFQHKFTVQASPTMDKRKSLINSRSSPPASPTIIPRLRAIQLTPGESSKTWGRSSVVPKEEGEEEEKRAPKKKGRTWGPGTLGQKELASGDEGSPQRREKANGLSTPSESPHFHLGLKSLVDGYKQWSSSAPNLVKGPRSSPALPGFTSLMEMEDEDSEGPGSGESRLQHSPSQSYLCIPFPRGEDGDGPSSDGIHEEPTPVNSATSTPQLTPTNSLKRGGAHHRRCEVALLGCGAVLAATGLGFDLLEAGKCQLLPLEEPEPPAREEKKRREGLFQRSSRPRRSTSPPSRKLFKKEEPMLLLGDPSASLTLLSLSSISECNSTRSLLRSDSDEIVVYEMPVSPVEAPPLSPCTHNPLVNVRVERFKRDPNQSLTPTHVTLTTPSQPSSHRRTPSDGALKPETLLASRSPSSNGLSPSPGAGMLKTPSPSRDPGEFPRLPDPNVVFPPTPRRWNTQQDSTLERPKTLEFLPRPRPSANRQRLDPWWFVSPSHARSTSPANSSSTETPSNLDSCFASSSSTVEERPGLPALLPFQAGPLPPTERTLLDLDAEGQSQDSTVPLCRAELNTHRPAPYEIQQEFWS
Procedure: as §1

[16] = target: PIM1 (Homo sapiens, UniProt P11309)
Procedure: as §1

[17] = target: PIM2 (Homo sapiens, UniProt Q9P1W9)
Procedure: as §1

[18] = target: RAF1 (Homo sapiens, UniProt P04049)
Procedure: as §1

[19] = target: SRPK3 (Homo sapiens, UniProt Q9UPE1)
SRPK3, sequence (Q9UPE1 whole entry): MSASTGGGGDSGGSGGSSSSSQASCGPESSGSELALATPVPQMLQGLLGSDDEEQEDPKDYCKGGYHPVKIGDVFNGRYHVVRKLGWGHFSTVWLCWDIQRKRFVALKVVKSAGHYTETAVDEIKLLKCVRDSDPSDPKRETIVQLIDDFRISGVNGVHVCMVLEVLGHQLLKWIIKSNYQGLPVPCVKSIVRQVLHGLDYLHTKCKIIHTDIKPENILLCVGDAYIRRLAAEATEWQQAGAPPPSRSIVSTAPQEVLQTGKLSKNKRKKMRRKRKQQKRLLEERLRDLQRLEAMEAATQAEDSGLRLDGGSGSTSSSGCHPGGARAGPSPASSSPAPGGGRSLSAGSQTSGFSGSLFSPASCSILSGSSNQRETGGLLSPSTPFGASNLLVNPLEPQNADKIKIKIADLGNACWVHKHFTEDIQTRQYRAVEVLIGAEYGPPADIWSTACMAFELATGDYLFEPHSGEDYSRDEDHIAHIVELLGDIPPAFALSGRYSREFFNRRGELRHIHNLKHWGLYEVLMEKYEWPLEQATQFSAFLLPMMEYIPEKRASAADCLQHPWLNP
Procedure: as §1

[20] = target: ULK2 (Homo sapiens, UniProt Q8IYT8)
ULK2, sequence (Q8IYT8 whole entry): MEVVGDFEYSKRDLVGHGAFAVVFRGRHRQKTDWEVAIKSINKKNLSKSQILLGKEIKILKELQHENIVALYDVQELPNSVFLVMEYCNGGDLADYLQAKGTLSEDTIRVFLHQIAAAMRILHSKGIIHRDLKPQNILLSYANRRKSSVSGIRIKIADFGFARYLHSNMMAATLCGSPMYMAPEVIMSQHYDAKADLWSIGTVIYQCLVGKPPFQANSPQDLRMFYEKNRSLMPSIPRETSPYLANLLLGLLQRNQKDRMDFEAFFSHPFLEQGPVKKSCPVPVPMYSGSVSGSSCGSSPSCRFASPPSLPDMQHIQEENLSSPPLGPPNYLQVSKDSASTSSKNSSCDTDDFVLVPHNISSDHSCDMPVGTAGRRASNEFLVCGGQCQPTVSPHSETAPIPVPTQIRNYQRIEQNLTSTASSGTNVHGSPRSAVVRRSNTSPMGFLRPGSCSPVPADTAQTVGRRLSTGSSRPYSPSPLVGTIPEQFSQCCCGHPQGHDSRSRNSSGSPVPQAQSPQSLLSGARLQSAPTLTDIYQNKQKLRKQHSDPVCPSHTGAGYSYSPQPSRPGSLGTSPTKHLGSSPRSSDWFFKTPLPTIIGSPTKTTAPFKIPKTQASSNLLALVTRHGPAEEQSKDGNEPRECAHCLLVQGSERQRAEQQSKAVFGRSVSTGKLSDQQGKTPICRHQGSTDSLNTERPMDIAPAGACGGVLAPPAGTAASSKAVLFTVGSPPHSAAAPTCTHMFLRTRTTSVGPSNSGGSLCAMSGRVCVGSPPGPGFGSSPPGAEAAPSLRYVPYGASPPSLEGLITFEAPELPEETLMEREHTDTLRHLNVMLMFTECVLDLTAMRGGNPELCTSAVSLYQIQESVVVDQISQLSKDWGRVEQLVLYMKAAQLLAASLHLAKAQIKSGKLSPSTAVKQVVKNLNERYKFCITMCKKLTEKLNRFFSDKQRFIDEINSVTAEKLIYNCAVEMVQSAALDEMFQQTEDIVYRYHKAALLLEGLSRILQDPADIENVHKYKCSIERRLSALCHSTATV
Procedure: as §1

[21] = target: T9, YANK3 (Homo sapiens, UniProt Q86UX6)
T9 construct: gene STK32C
T9 sequence (Q86UX6 whole entry): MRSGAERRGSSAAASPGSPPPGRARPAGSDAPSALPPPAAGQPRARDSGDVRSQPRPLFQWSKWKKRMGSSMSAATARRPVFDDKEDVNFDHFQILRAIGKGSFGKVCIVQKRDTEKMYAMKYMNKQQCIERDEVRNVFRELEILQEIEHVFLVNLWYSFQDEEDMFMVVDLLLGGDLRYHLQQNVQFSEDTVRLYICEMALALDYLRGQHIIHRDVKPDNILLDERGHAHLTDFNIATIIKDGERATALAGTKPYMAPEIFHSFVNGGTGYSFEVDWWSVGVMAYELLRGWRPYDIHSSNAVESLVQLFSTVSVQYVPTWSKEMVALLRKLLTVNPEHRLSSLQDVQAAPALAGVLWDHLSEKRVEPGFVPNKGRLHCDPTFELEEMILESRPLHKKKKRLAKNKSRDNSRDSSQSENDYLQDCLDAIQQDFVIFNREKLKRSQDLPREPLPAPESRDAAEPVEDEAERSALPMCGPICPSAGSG
Procedure: as §1

[22] = target: ZAP70 (Homo sapiens, UniProt P43403)
Procedure: as §1

[23] = target: T10, p38-alpha (Homo sapiens, UniProt Q16539)
T10 construct: gene MAPK14
T10 sequence (Q16539 whole entry): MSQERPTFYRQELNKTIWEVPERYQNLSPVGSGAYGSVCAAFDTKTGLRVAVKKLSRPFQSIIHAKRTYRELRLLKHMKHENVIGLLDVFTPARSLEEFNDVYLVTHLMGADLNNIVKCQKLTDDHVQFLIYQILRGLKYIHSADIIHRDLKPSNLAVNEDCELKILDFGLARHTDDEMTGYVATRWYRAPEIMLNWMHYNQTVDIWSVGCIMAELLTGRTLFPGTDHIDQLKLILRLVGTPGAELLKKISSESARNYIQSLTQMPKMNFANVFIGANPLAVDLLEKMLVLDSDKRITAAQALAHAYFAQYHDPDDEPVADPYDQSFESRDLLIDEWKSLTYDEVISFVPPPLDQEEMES
Procedure: as §1

[24] = read-out: R428 %Ctrl @ 10000nM, binding competition
[25] = binding competition, % of control, read-out: RU-301 %Ctrl @ 10000nM

Work on `Nc1nc(Nc2ccc3c(c2)CC[C@@H](N2CCCC2)CC3)nn1-c1cc2c(nn1)-c1ccccc1CCC2` [R428] yielded a percent of control binding at 10 µM [1, 24] of 0.25%, a percent of control binding at 10 µM [2, 24] of 0.25% and a percent of control binding at 10 µM [3, 24] of 26%. For the same compound, the percent of control binding at 10 µM [4, 24] was 0.45%, the percent of control binding at 10 µM [5, 24] was 98% and the percent of control binding at 10 µM [6, 24] was 15%. It also gave a percent of control binding at 10 µM [7, 24] of 98%, a percent of control binding at 10 µM [8, 24] of 4.6% and a percent of control binding at 10 µM [9, 24] of 98%. For the same compound, the percent of control binding at 10 µM [10, 24] was 46%, the percent of control binding at 10 µM [11, 24] was 34% and the percent of control binding at 10 µM [12, 24] was 4.8%. It also gave a percent of control binding at 10 µM [13, 24] of 0%, a percent of control binding at 10 µM [14, 24] of 46% and a percent of control binding at 10 µM [15, 24] of 2.2%. For the same compound, the percent of control binding at 10 µM [16, 24] was 67%, the percent of control binding at 10 µM [17, 24] was 100% and the percent of control binding at 10 µM [18, 24] was 100%. For the same compound, the percent of control binding at 10 µM [19, 24] was 3.8%, the percent of control binding at 10 µM [20, 24] was 1.6% and the percent of control binding at 10 µM [21, 24] was 100%. The percent of control binding at 10 µM [22, 24] was 33% and the percent of control binding at 10 µM [23, 24] was 78%.
`Cc1cc(CSc2ccccc2C(=O)NCCNc2ccc(C(F)(F)F)cc2[N+](=O)[O-])on1` [RU-301] showed a remaining binding at 10 µM [1, 25] of 94%, a remaining binding at 10 µM [2, 25] of 100% and a remaining binding at 10 µM [3, 25] of 96%. The remaining binding at 10 µM [4, 25] was 73%, the remaining binding at 10 µM [5, 25] was 94% and the remaining binding at 10 µM [6, 25] was 83%. For the same compound, the remaining binding at 10 µM [7, 25] was 94%, the remaining binding at 10 µM [8, 25] was 100% and the remaining binding at 10 µM [9, 25] was 81%. For the same compound, the remaining binding at 10 µM [10, 25] was 94%, the remaining binding at 10 µM [11, 25] was 83% and the remaining binding at 10 µM [12, 25] was 100%. The remaining binding at 10 µM [13, 25] was 87%, the remaining binding at 10 µM [14, 25] was 100% and the remaining binding at 10 µM [15, 25] was 100%. The remaining binding at 10 µM [16, 25] was 82%, the remaining binding at 10 µM [17, 25] was 83% and the remaining binding at 10 µM [18, 25] was 84%. It also gave a remaining binding at 10 µM [19, 25] of 80%, a remaining binding at 10 µM [20, 25] of 97% and a remaining binding at 10 µM [21, 25] of 100%. It also gave a remaining binding at 10 µM [22, 25] of 76% and a remaining binding at 10 µM [23, 25] of 93%.
